Laboratory results reported in patent publication US20260078103A1, “ISOQUINOLONES AS PI3K INHIBITORS” (OnKure, Inc., priority 2022, published 2026).
Where two headings read alike, the source gives them in different places.

Tests used:
Format in all cases: cell-based
[1] = tested on: T47D cells expressing mutant PI3Ka (H1047R); test: In vitro cell proliferation, T47D cells (CellTiter-Glo); conditions: inhibition of proliferation, read-out: Avg T-47D EC50
How it was run: (§1)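 EC50 values derive from a four-parameter logistic fit of luminescence-based (CellTiter-Glo) inhibition, referenced to 0.1% DMSO and 10 uM Alpelisib controls. Compound exposure lasted 72 h at 37 °C.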

[2] = tested on: SKBR3 cells express WT PI3Ka; test: In vitro cell proliferation, SKBR3 cells (CellTiter-Glo); conditions: inhibition of proliferation
How it was run: as §1

[3] = tested on: phosphorylation of AKT (pAKT) in T47D cells expressing mutant PI3Ka (H1047R); test: In vitro cell pAKT (Ser473) HTRF, T47D cells; conditions: cellular pAKT, T47D cells, mutant PI3Ka (H1047R), 6 hours, read-out: Avg T-47D IC50
How it was run: (§2)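 pAKT (Ser473) was quantified by HTRF in lysates from cells exposed 6 h at 37 °C to 10-point compound series, with T47D in insulin-supplemented RPMI/10% FBS and SKBR3 in McCoy's 5a/10% FBS. Controls: 0.1% DMSO (high) and 10 uM alpelisib (low). IC50 from sigmoidal curve fitting.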

[4] = tested on: phosphorylation of AKT (pAKT) in SKBR3 cells express WT PI3Ka; test: In vitro cell pAKT (Ser473) HTRF, SKBR3 cells; conditions: cellular pAKT
How it was run: as §2

Cc1cc([C@@H](C)Nc2ccccc2C(=O)O)c2cc(-c3cnc(C(F)(F)F)c(F)c3)n(C)c(=O)c2c1 [Example 295]
EC50 ([1]; Homo sapiens, T47D, 72 h): 1 to 500 nM
EC50 ([2]; Homo sapiens, SK-BR-3, 72 h): > 15000 nM
IC50 ([3]; Homo sapiens, T47D, 6 h): 1 to 500 nM
IC50 ([4]; Homo sapiens, SK-BR-3, 6 h): > 15000 nM

Cc1cc([C@@H](C)Nc2ccccc2C(=O)O)c2cc(C3CCN(CC(F)(F)F)CC3)n(C)c(=O)c2c1 [Example 296]
EC50 ([1]; Homo sapiens, T47D, 72 h): 1 to 500 nM
EC50 ([2]; Homo sapiens, SK-BR-3, 72 h): > 15000 nM
IC50 ([3]; Homo sapiens, T47D, 6 h): 1 to 500 nM
IC50 ([4]; Homo sapiens, SK-BR-3, 6 h): > 15000 nM

Cc1cc([C@@H](C)Nc2cccc(C)c2C(=O)O)c2cc(N3CCN(CC(F)(F)F)CC3)n(C)c(=O)c2c1 [Example 297]
EC50 ([1]; Homo sapiens, T47D, 72 h): 2000 to 15000 nM
EC50 ([2]; Homo sapiens, SK-BR-3, 72 h): > 15000 nM
IC50 ([3]; Homo sapiens, T47D, 6 h): 2000 to 15000 nM
IC50 ([4]; Homo sapiens, SK-BR-3, 6 h): > 15000 nM

C#Cc1ccc(N[C@H](C)c2cc(C)cc3c(=O)n(C)c(N4CCN(CC(F)(F)F)CC4)cc23)c(C(=O)O)n1 [Example 299]
EC50 ([1]; Homo sapiens, T47D, 72 h): 1 to 500 nM
EC50 ([2]; Homo sapiens, SK-BR-3, 72 h): 2000 to 15000 nM
IC50 ([3]; Homo sapiens, T47D, 6 h): 1 to 500 nM
IC50 ([4]; Homo sapiens, SK-BR-3, 6 h): 2000 to 15000 nM

COc1cccc(N[C@H](C)c2cc(C)cc3c(=O)n(C)c(N4CCN(CC(F)(F)F)CC4)cc23)c1C(=O)O [Example 300]
EC50 ([1]; Homo sapiens, T47D, 72 h): 500 to 2000 nM
EC50 ([2]; Homo sapiens, SK-BR-3, 72 h): > 15000 nM
IC50 ([3]; Homo sapiens, T47D, 6 h): 500 to 2000 nM
IC50 ([4]; Homo sapiens, SK-BR-3, 6 h): > 15000 nM

Cc1cc([C@@H](C)Nc2ccccc2C(=O)O)c2cc(C3C[C@H]3C3CC3)n(C)c(=O)c2c1 (some centres unmarked) [Example 303]
EC50 ([1]; Homo sapiens, T47D, 72 h): 1 to 500 nM
EC50 ([2]; Homo sapiens, SK-BR-3, 72 h): > 15000 nM
IC50 ([3]; Homo sapiens, T47D, 6 h): 1 to 500 nM
IC50 ([4]; Homo sapiens, SK-BR-3, 6 h): > 15000 nM

COC[C@@H]1CC1c1cc2c([C@@H](C)Nc3ccccc3C(=O)O)cc(C)cc2c(=O)n1C (some centres unmarked) [Example 304]
EC50 ([1]; Homo sapiens, T47D, 72 h): 1 to 500 nM
EC50 ([2]; Homo sapiens, SK-BR-3, 72 h): > 15000 nM
IC50 ([3]; Homo sapiens, T47D, 6 h): 1 to 500 nM
IC50 ([4]; Homo sapiens, SK-BR-3, 6 h): > 15000 nM

Cc1cc([C@@H](C)Nc2ccccc2C(=O)O)c2cc(C3C[C@H]3C)n(C)c(=O)c2c1 (some centres unmarked) [Example 305]
EC50 ([1]; Homo sapiens, T47D, 72 h): 1 to 500 nM
EC50 ([2]; Homo sapiens, SK-BR-3, 72 h): > 15000 nM
IC50 ([3]; Homo sapiens, T47D, 6 h): 1 to 500 nM
IC50 ([4]; Homo sapiens, SK-BR-3, 6 h): > 15000 nM

Cc1cc([C@@H](C)Nc2ccccc2C(=O)O)c2cc(C3C[C@H]3C(C)C)n(C)c(=O)c2c1 (some centres unmarked) [Example 306]
EC50 ([1]; Homo sapiens, T47D, 72 h): 1 to 500 nM
EC50 ([2]; Homo sapiens, SK-BR-3, 72 h): > 15000 nM
IC50 ([3]; Homo sapiens, T47D, 6 h): 1 to 500 nM
IC50 ([4]; Homo sapiens, SK-BR-3, 6 h): > 15000 nM

Cc1cc([C@@H](C)Nc2ccccc2C(=O)O)c2cc(-c3cnc(C4CC4)nc3)n(C)c(=O)c2c1 [Example 307]
EC50 ([1]; Homo sapiens, T47D, 72 h): 1 to 500 nM
EC50 ([2]; Homo sapiens, SK-BR-3, 72 h): > 15000 nM
IC50 ([3]; Homo sapiens, T47D, 6 h): 1 to 500 nM
IC50 ([4]; Homo sapiens, SK-BR-3, 6 h): > 15000 nM

C[C@@H](Nc1ccccc1C(=O)O)c1cc(F)cc2c(=O)n(C)c(N3CCN(CC(F)(F)F)CC3)cc12 [Example 316]
EC50 ([1]; Homo sapiens, T47D, 72 h): 1 to 500 nM
EC50 ([2]; Homo sapiens, SK-BR-3, 72 h): > 15000 nM
IC50 ([3]; Homo sapiens, T47D, 6 h): 1 to 500 nM
IC50 ([4]; Homo sapiens, SK-BR-3, 6 h): > 15000 nM

Cc1cc([C@@H](C)Nc2ccccc2C(=O)O)c2cc(-c3cnc(C(C)(F)F)nc3)n(C)c(=O)c2c1 [Example 317]
EC50 ([1]; Homo sapiens, T47D, 72 h): 1 to 500 nM
EC50 ([2]; Homo sapiens, SK-BR-3, 72 h): > 15000 nM
IC50 ([3]; Homo sapiens, T47D, 6 h): 1 to 500 nM
IC50 ([4]; Homo sapiens, SK-BR-3, 6 h): > 15000 nM

Cc1cc([C@@H](C)Nc2cccc(F)c2C(=O)O)c2cc(-c3cnc(C(C)C)nc3)n(C)c(=O)c2c1 [Example 319]
EC50 ([1]; Homo sapiens, T47D, 72 h): 1 to 500 nM
EC50 ([2]; Homo sapiens, SK-BR-3, 72 h): > 15000 nM
IC50 ([3]; Homo sapiens, T47D, 6 h): 1 to 500 nM
IC50 ([4]; Homo sapiens, SK-BR-3, 6 h): > 15000 nM

Cc1cc([C@@H](C)Nc2cccc(F)c2C(=O)O)c2cc(C3CC3)n(C)c(=O)c2c1 [Example 320]
EC50 ([1]; Homo sapiens, T47D, 72 h): 1 to 500 nM
EC50 ([2]; Homo sapiens, SK-BR-3, 72 h): > 15000 nM
IC50 ([3]; Homo sapiens, T47D, 6 h): 1 to 500 nM
IC50 ([4]; Homo sapiens, SK-BR-3, 6 h): > 15000 nM

Cc1cc([C@@H](C)Nc2ccccc2C(=O)O)c2cc(C34CC(c5ccc(F)cc5)(C3)C4)n(C)c(=O)c2c1 [Example 321]
EC50 ([1]; 72 hours): 1 to 500 nM
EC50 ([2]; 72 hours): > 15000 nM
IC50 [3]: 1 to 500 nM
IC50 ([4]; 6 hours): 2000 to 15000 nM

Cc1ncc(F)cc1-c1ncc(-c2cc3c([C@@H](C)Nc4ccccc4C(=O)O)cc(F)cc3c(=O)n2C)cc1F [Example 323]
EC50 ([1]; Homo sapiens, T47D, 72 h): 1 to 500 nM
EC50 ([2]; Homo sapiens, SK-BR-3, 72 h): 2000 to 15000 nM
IC50 ([3]; Homo sapiens, T47D, 6 h): 1 to 500 nM
IC50 ([4]; Homo sapiens, SK-BR-3, 6 h): 2000 to 15000 nM

C[C@@H](Nc1ccccc1C(=O)O)c1cc(F)cc2c(=O)n(C)c(-c3cnc(-c4ccc(F)cc4)nc3)cc12 [Example 324]
EC50 ([1]; 72 hours): 1 to 500 nM
EC50 ([2]; 72 hours): 2000 to 15000 nM
IC50 [3]: 1 to 500 nM
IC50 ([4]; 6 hours): > 15000 nM

Cc1cc([C@@H](C)Nc2cccc(F)c2C(=O)O)c2cc(N3CCN(c4cncnc4C)CC3)n(C)c(=O)c2c1 [Example 325]
EC50 ([1]; 72 hours): 1 to 500 nM
EC50 ([2]; 72 hours): 2000 to 15000 nM
IC50 [3]: 500 to 2000 nM
IC50 ([4]; 6 hours): 2000 to 15000 nM

Cc1cc([C@@H](C)Nc2cccc(F)c2C(=O)O)c2cc(-c3ccc(C(C)(C)F)nc3)n(C)c(=O)c2c1 [Example 326]
EC50 ([1]; Homo sapiens, T47D, 72 h): 1 to 500 nM
EC50 ([2]; Homo sapiens, SK-BR-3, 72 h): > 15000 nM
IC50 ([3]; Homo sapiens, T47D, 6 h): 1 to 500 nM
IC50 ([4]; Homo sapiens, SK-BR-3, 6 h): > 15000 nM

Cc1cc([C@@H](C)Nc2ccc(Cl)c(F)c2C(=O)O)c2cc(N3CCN(CC(F)(F)F)CC3)n(C)c(=O)c2c1 [Example 327]
EC50 ([1]; 72 hours): 500 to 2000 nM
EC50 ([2]; 72 hours): > 15000 nM
IC50 [3]: 500 to 2000 nM
IC50 ([4]; 6 hours): 2000 to 15000 nM
